Laboratory results as given in PMC5681660, “Reduced hepatitis B and D viral entry using clinically applied drugs as novel inhibitors of the bile acid transporter NTCP” (Scientific Reports, 2017).
Structures can show the parent of a compound that is named as a salt. Where two headings read alike, the source gives them in different places.

Key:
human NTCP [1] = target: T1, human NTCP (Homo sapiens, UniProt Q14973); test: Screening taurocholate uptake assay (96-well, [14C]taurocholate, 10 µM drug)
T1 sequence (Q14973 1-349): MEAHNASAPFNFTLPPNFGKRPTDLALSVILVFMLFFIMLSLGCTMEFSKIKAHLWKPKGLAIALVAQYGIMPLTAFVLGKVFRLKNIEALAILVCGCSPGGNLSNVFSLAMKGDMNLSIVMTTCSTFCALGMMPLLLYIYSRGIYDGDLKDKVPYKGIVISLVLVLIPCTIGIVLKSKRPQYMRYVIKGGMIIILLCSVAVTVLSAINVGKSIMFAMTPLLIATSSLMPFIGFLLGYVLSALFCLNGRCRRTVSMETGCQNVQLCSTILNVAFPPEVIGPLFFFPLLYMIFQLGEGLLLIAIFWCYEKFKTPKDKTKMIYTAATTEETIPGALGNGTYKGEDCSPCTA

human NTCP [2] = target: T1, human NTCP; test: Screening fluorescent competitive Myrcludex B-FITC binding assay (96-well, 10 µM drug)
[3] = combined ranking from functional and binding screening assays
[4] = screen, 10 µM drug, taurocholate uptake
[5] = screen, 10 µM drug, Myrcludex B-FITC binding
[6] = Prestwick library screen, 10 µM drug, B-score of taurocholate uptake
[7] = combined ranking from functional and binding assay B-scores
[8] = Prestwick library screen, 10 µM drug, B-score of Myrcludex B-FITC binding
[9] = Prestwick library screen, taurocholate uptake, 10 µM drug
[10] = ranking score beside the functional and binding assay B-scores of the screen
[11] = Prestwick library screen, Myrcludex B-FITC binding, 10 µM drug

`COC(=O)C1=C(C#N)NC(C)=C(C(=O)OC(C)C)C1c1cccc([N+](=O)[O-])c1` (stereo not drawn) [Nilvadipine] was tested, and the Ranking score (human NTCP [1]; [3]) was 384.686, the B-score functional assay (human NTCP [1]; [4]) was -2.135 and the B-score binding assay (human NTCP [2]; [5]) was 2.397.
With `CS(=O)(=O)Nc1ccc([N+](=O)[O-])cc1Oc1ccccc1` [Nimesulide] the Ranking score (human NTCP [1]; [3]) was 428.869, the B-score functional assay (human NTCP [1]; [4]) was -1.398 and the B-score binding assay (human NTCP [2]; [5]) was 0.652.
`O=C1NCCN1c1ncc([N+](=O)[O-])s1` [Niridazole] was tested, and the Ranking score (human NTCP [1]; [3]) was 301.174, the B-score functional assay (human NTCP [1]; [4]) was -1.225 and the B-score binding assay (human NTCP [2]; [5]) was -0.358.
In the case of `CNCCC(Oc1ccccc1OC)c1ccccc1` (stereo not drawn) [Nisoxetine hydrochloride], the B-score functional assay (human NTCP [1]) was -0.598, the Ranking score (human NTCP [1]) was 324.321 and the B-score binding assay (human NTCP [2]) was -0.726.
Molecule `CCN(CC)CCOC(=O)C1(c2ccc([N+](=O)[O-])cc2)CCCC1.Cl` [Nitrocaramiphen hydrochloride] has a B-score functional assay (human NTCP [1]; [6]) of 0.881, a Ranking score (human NTCP [1]; [7]) of 904.838 and a B-score binding assay (human NTCP [2]; [8]) of 0.18.
`CNC(=C[N+](=O)[O-])NCCSCc1csc(CN(C)C)n1` [Nizatidine] was tested, and the B-score functional assay (human NTCP [1]; [6]) was 0.271, the Ranking score (human NTCP [1]; [7]) was 960.129 and the B-score binding assay (human NTCP [2]; [8]) was 1.375.
In the case of `COC(=O)Nc1nc2ccc(C(=O)c3cccs3)cc2[nH]1` [Nocodazole], the Ranking score (human NTCP [1]; [3]) was 428.035, the B-score functional assay (human NTCP [1]; [4]) was -1.345 and the B-score binding assay (human NTCP [2]; [5]) was 0.497.
`CC(=O)O[C@]1(C(C)=O)CC[C@H]2[C@@H]3C=C(C)C4=CC(=O)CC[C@@H]4[C@H]3CC[C@@]21C` [Nomegestrol acetate] gave a Ranking score (human NTCP [1]; [3]) of 298.149, a B-score functional assay (human NTCP [1]; [4]) of -2.71 and a B-score binding assay (human NTCP [2]; [5]) of 1.174.
In the case of `CN1Cc2c(N)cccc2C(c2ccccc2)C1` (stereo not drawn) [Nomifensine maleate], the Ranking score (human NTCP [1]; [3]) was 394.208, the B-score functional assay (human NTCP [1]; [4]) was 0.089 and the B-score binding assay (human NTCP [2]; [5]) was -1.176.
`CNCCC=C1c2ccccc2C=Cc2ccccc21` [Norcyclobenzaprine] gave a B-score functional assay (human NTCP [1]; [9]) of 0.855, a Ranking score (human NTCP [1]; [10]) of 807.009 and a B-score binding assay (human NTCP [2]; [11]) of -0.001.
Work on `C#C[C@]1(O)CC[C@H]2[C@@H]3CCC4=C(CCC(=O)C4)[C@H]3CC[C@@]21C` [Norethynodrel] yielded a B-score functional assay (human NTCP [1]; [9]) of 0.092, a Ranking score (human NTCP [1]; [10]) of 749.492 and a B-score binding assay (human NTCP [2]; [11]) of 0.121.
`CCn1cc(C(=O)O)c(=O)c2cc(F)c(N3CCNCC3)cc21` [Norfloxacin] gave a B-score functional assay (human NTCP [1]; [9]) of -0.135, a Ranking score (human NTCP [1]; [10]) of 788.093 and a B-score binding assay (human NTCP [2]; [11]) of 2.084.
Work on `CNCCC=C1c2ccccc2CCc2ccccc21` [Nortriptyline hydrochloride] yielded a B-score functional assay (human NTCP [1]; [6]) of 1.081, a Ranking score (human NTCP [1]; [7]) of 1101.36 and a B-score binding assay (human NTCP [2]; [8]) of 1.407.
`CO[C@@H]1[C@@H](OC(N)=O)[C@@H](O)[C@H](Oc2ccc3c([O-])c(NC(=O)c4ccc(O)c(CC=C(C)C)c4)c(=O)oc3c2C)OC1(C)C.[Na+]` [Novobiocin sodium salt] was tested, and the B-score functional assay (human NTCP [1]; [6]) was 1.027, the Ranking score (human NTCP [1]; [7]) was 942.881 and the B-score binding assay (human NTCP [2]; [8]) was 0.269.
`CC(CCc1ccccc1)NC(C)C(O)c1ccc(O)cc1` (stereo not drawn) [Nylidrin] showed a Ranking score (human NTCP [1]; [3]) of 363.793, a B-score functional assay (human NTCP [1]; [4]) of -0.121 and a B-score binding assay (human NTCP [2]; [5]) of -0.92.
Molecule `C[C@@H]1[C@H](O)[C@@H](C)/C=C/C=C/CC/C=C/C=C/C=C/C=C/C(O[C@H]2O[C@H](C)[C@@H](O)[C@H](N)[C@@H]2O)CC2O[C@](O)(CC(O)C(O)CCC(O)CC(O)CC(O)CC(=O)O[C@H]1C)CC(O)C2C(=O)O` (stereo partly drawn) [Nystatine] has a B-score functional assay (human NTCP [1]; [9]) of -0.141, a Ranking score (human NTCP [1]; [10]) of 804.798 and a B-score binding assay (human NTCP [2]; [11]) of 3.8.
`CC1COc2c(N3CCN(C)CC3)c(F)cc3c(=O)c(C(=O)O)cn1c23` (stereo not drawn) [Ofloxacin] was tested, and the B-score functional assay (human NTCP [1]) was 1.32, the Ranking score (human NTCP [1]) was 1023.33 and the B-score binding assay (human NTCP [2]) was 0.588.
`Cc1cc2c(s1)Nc1ccccc1N=C2N1CCN(C)CC1` [Olanzapine] was tested, and the B-score functional assay (human NTCP [1]; [6]) was 0.458, the Ranking score (human NTCP [1]; [7]) was 1041.63 and the B-score binding assay (human NTCP [2]; [8]) was 2.253.
`CN(C)CC/C=C1/c2ccccc2COc2ccc(CC(=O)O)cc21` [Olopatadine hydrochloride] gave a B-score functional assay (human NTCP [1]; [6]) of 1.227, a Ranking score (human NTCP [1]; [7]) of 1048.28 and a B-score binding assay (human NTCP [2]; [8]) of 0.808.
For `COc1ccc2[nH]c([S+]([O-])Cc3ncc(C)c(OC)c3C)nc2c1` (stereo not drawn) [Omeprazole], the Ranking score (human NTCP [1]; [3]) was 423.789, the B-score functional assay (human NTCP [1]; [4]) was -0.074 and the B-score binding assay (human NTCP [2]; [5]) was -0.678.
In the case of `Cc1nccn1CC1CCc2c(c3ccccc3n2C)C1=O.Cl` (stereo not drawn) [Ondansetron Hydrochloride], the B-score functional assay (human NTCP [1]; [9]) was 0.043, the Ranking score (human NTCP [1]; [10]) was 666.933 and the B-score binding assay (human NTCP [2]; [11]) was 0.
